By IC50 is commonly meant the concentration at which inhibition is half-maximal. As usually defined, the logD is the decadic logarithm of the distribution of all forms, ionised or not, between an organic phase and buffer at a given pH. Higher therefore signals a more lipophilic compound.

Experimental findings from ChEMBL document CHEMBL5126629, “Paradoxical Increase of Permeability and Lipophilicity with the Increasing Topological Polar Surface Area within a Series of PRMT5 Inhibitors” (J Med Chem, 2022) are described below.

Data set [1] concerns the target Protein arginine N-methyltransferase 5 (Homo sapiens, UniProt O14744). Nature of the data set: Inhibition of PRMT5 methyltransferase activity in human MTAP -/- Calu-6 cells assessed as reduction in SmB SDMA levels measured after 2 days by HTRF based assay. It counts as cell-based. For orientation: Time-resolved FRET reads energy transfer from a long-lived donor to a nearby acceptor.

The nature of data set [2]: Lipophilicity, logD of the compound in octanol and phosphate buffer at pH 7.4 incubated for 4 hrs under shaking condition by liquid chromatography tandem mass spectrometry. It counts as physicochemical.
The nature of data set [3]: Efflux ratio of apparent permeability across […] in MDCK-MDR1 incubated for 120 mins by LC-MS analysis. The class given is ADME, cell-based, Canis lupus familiaris. The settings on record: dog, mdck-mdr1, 2 h.
Data set [4] is described as follows: Metabolic stability in human liver microsomes assessed as intrinsic clearance measured upto 30 mins in presence of NADPH by LC/MS/MS analysis. The class given is ADME, Microsome. The settings on record: read-out: CLH. Background: Liver microsomes are a subcellular fraction often used to study metabolism.

Protein arginine N-methyltransferase 5, sequence (O14744 whole entry): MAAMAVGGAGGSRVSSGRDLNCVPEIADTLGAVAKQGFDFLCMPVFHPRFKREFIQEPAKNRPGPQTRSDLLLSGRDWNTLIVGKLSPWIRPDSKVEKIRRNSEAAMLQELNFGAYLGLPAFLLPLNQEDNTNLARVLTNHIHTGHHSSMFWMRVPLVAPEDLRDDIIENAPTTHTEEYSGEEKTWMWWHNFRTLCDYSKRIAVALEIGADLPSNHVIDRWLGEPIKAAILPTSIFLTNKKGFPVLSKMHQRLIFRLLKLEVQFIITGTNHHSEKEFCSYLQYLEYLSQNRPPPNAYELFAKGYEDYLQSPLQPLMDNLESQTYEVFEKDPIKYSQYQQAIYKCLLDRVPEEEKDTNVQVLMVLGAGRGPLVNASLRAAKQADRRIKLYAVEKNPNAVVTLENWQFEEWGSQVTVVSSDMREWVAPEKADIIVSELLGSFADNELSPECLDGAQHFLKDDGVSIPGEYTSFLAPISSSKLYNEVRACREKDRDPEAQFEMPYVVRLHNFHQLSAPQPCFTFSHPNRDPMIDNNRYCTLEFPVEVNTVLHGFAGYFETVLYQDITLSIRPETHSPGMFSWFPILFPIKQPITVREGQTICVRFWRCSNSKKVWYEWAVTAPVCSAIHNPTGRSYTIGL

In the case of `Cc1cc2ccc(Cn3c(C(=O)N(C)c4ccccc4)cccc3=O)cc2nc1N`, in data set [1], the IC50 came out at 17 nM. The logD at 4 h in data set [2] was determined as 2. In data set [3], the Ratio is given as 22. Further, the microsomal CLint in data set [4] amounted to 422 µL/min/mg.

Take `Cc1cc2ccc(Cn3c(C(=O)N(C)c4ccccn4)nn(C)c3=O)cc2nc1N`: in data set [1], the IC50 came to 21 nM. The molecule also showed a logD at 4 h in data set [2] of 0.9. Further, the Ratio in data set [3] came to 17. Besides, the microsomal CLint in data set [4] is below 25 µL/min/mg.

In the case of `Cc1cc2ccc(Cn3nccc3C(=O)N(C)c3ncccc3F)cc2nc1N`, the IC50 in data set [1] worked out at 14 nM. In data set [2], this molecule had a logD at 4 h of 1.8. In addition, the Ratio in data set [3] turned out to be 1. For the same molecule, the microsomal CLint in data set [4] came to 89 µL/min/mg.

For the molecule `Cc1cc2ccc(Cn3c(C(=O)N(C)c4ccccc4)coc3=O)cc2nc1N`, the IC50 in data set [1] worked out at 1 nM. This molecule also returned a logD at 4 h in data set [2] of 1.8. The Ratio in data set [3] was 2. For the same molecule, the microsomal CLint in data set [4] came out at 240 µL/min/mg.

Take `Cc1cc2ncc(Cn3c(C(=O)N(C)c4ccccc4)cn(C)c3=O)cc2nc1N`: in data set [1], the IC50 was 29 nM. Moreover, the logD at 4 h in data set [2] is 1.1. Also, the microsomal CLint in data set [4] was 36 µL/min/mg.

On to `Cc1cc2ccc(Cn3c(C(=O)N(C)c4ccccc4)cn(C)c3=O)cc2nc1N`, for which, in data set [1], the 50% inhibitory concentration (IC50) was 2 nM. Moreover, the logD at 4 h in data set [2] turned out to be 1.6. The Ratio in data set [3] came to 35. Moreover, the microsomal CLint in data set [4] is 395 µL/min/mg.

Consider `Cc1cc2ccc(Cn3c(C(=O)N(C)c4ccccn4)cn(C)c3=O)cc2nc1N`, for which the IC50 in data set [1] is 9 nM. Also, in data set [2], the logD at 4 h was 0.8. The Ratio in data set [3] amounted to 14. Also, the microsomal CLint in data set [4] is 28 µL/min/mg.

`Cc1cc2ccc(Cn3c(C(=O)N(C)c4ccccc4)noc3=O)cc2nc1N`: the IC50 in data set [1] was 49 nM. The molecule also gave a logD at 4 h in data set [2] of 2.9. Moreover, in data set [3], the Ratio worked out at 1. Also, in data set [4], the microsomal CLint was above 700 µL/min/mg.

Consider `Cc1cc2ccc(Cn3c(C(=O)N(C)c4ccccc4)nn(C)c3=O)cc2nc1N`, for which, in data set [1], the IC50 came to 2 nM. The same molecule displayed a log distribution coefficient (logD) at 4 h in data set [2] of 1.9. The Ratio in data set [3] came to 6. For the same molecule, the microsomal CLint in data set [4] was found to be 97 µL/min/mg.

As for `Cc1cc2ccc(Cn3c(C(=O)N(C)c4ccccc4)nccc3=O)cc2nc1N`, the IC50 in data set [1] was 39 nM. In addition, in data set [2], the logD at 4 h was 2.1. In addition, the Ratio in data set [3] is on record as 8. Further, the microsomal CLint in data set [4] was found to be 299 µL/min/mg.

Turning to `Cc1cc2ccc(Cn3nncc3C(=O)N(C)c3ccccc3)cc2nc1N`, the IC50 in data set [1] was found to be 50 nM. For the same molecule, the logD at 4 h in data set [2] was determined as 2.1. Also, in data set [3], the Ratio stood at 3. Further, the microsomal CLint in data set [4] stood at 547 µL/min/mg.
